≈ marks a conversion by molar mass, not a printed value. Read-outs that look alike come from different tables or passages of the source.
What was measured:
A549 = test: In vitro tumor cell cytotoxicity (MTT colorimetric growth inhibition); type: cell-based; settings: Homo sapiens
Method: (§1) The compounds of the present invention were tested for in vitro cytotoxic activity against the tumor lines A549 […], HT-29 […], B16F10 (mouse melanoma) and P-388 (mouse leukemia). Concentrations of 50% growth inhibition (IC50 's) were measured in a colorimetric assay for cytotoxic activity against cultured cells according to the protocol described below:
(§2) A three-day microtiter assay was used to measure the growth inhibition of cultured cells exposed to a range of drug concentrations. Metabolic activity, and thus the continued survival of cells exposed to the test compounds, was measured by the cells' ability to reduce the tetrazolium dye, MTT (3-(4,5-dimethyl-thiazol-2-yl-2,5-diphenyltetrazolium bromide) to a quantifiable colored end product, which absorbs at 570 nm in the visible spectrum.
(§3) Test compounds were dissolved in dimethyl sulfoxide (DMSO) and diluted, first with Earle's Balanced Salt Solution followed by culture medium, to twice the highest concentration of compound to be tested. From this concentrated stock, twofold serial dilutions were prepared in 96-well microtiter trays, each well containing twice the desired final concentration of compound. Each concentration was tested in triplicate and compared to triplicate drug-free controls.
(§4) The cells were grown in the same medium used for diluting the compounds and then harvested using trypsinization. This involved removing the medium by aspiration; rinsing the cell monolayer twice with Earle's Balanced Salt Solution; adding trypsin (0.05%)/EDTA (0.53 mM; for each 25 cm^2, approximately 0.2 mL), tilting to cover the monolayer, and then withdrawing trypsin leaving only a thin film of solution; incubating at room temperature until the cell monolayers detached (as determined by visual and/or microscopic observation); adding medium containing fetal calf serum to stop the action of the trypsin and resuspend the cells; triturating to aid dissociation of cell clumps; and determining the number of cells per milliliter by electronic cell counter (e.g. Coulter Counter) or by mixing an aliquot of cell suspension with Trypan Blue (0.4% in normal saline) and counting the viable cells using a hemacytometer.
(§5) After harvesting and determination of viable cell counts, cell density was adjusted to 25,000 cells/mL. Inoculum (0.1 mL) containing the cells was then added to each well for a final concentration of 2,500 cells per well. Addition of the inoculum diluted the test compounds to the desired final concentration.
(§6) Microtiter trays were then incubated for three days at 36 ° C. in a humidified atmosphere containing 5% carbon dioxide. After three days, 20 microtiters of 5 mg/mL MTT in phosphate-buffered saline solution were added to each well. Trays were returned to the incubator for two to four hours to allow the surviving cells to reduce the dye. Medium and unreduced dye were removed by aspiration. DMSO was added to each well to dissolve the water-insoluble, colored end product of the dye reduction so that it could be measured spectrophotometrically at 570 nm. The IC50 was determined as the concentration of compound tested required to reduce the absorbance at 570 nm to 50% of non-drug treated control values.

HT-29 = test: as above; type: cell-based; settings: Homo sapiens
Method: as §1, §2, §3, §4, §5, §6

B16F10 = test: as above; type: cell-based, mouse; settings: B16-F10, 72 h
Method: as §1, §2, §3, §4, §5, §6

P388 = test: as above; type: cell-based, mouse; settings: P388, 72 h
Method: as §1, §2, §3, §4, §5, §6

[1] = tested on: advanced breast and ovarian cancers; settings: cited from earlier work
[2] = tested on: a number of other tumor types; settings: preliminary investigations; cited from earlier work

SMILES | IC50 (A549; 72 h, A549, three-day microtiter assay, MTT, 570 nm, read-out: IC50) [ng/mL] | IC50 (HT-29; 72 h, HT-29, three-day microtiter assay, MTT, 570 nm, read-out: IC50) [ng/mL] | IC50 (B16F10; B16F10 (mouse melanoma), three-day microtiter assay, MTT, 570 nm, read-out: IC50) [ng/mL] | IC50 (P388; P-388 (mouse leukemia), three-day microtiter assay, MTT, 570 nm, read-out: IC50) [ng/mL] | IC50 (A549; A549, 72 h) [ng/mL] | IC50 (HT-29; HT-29, 72 h) [ng/mL] | IC50 (B16F10; Mus musculus) [ng/mL] | IC50 (P388; Mus musculus) [ng/mL] | effectiveness in clinical trials [1] | activity against other tumor types [2]
CC(=O)O[C@@H]1C2=C(C)[C@@H](OC(=O)[C@H](O)[C@@H](NC(=O)OC(C)(C)C)c3ccccc3)C[C@@](O)([C@@H](OC(=O)c3ccccc3)[C@@H]3[C@]4(OC(C)=O)CO[C@@H]4C[C@H](C)[C@@]13C=O)C2(C)C [Example 3, 8-tert-Butyloxycarbonylamino-α-hydroxybenzenepropanoic acid 4,9-bis(acetyloxy)-2-benzoyloxy-8-formyl-1.2.3.4.5.6.7.8.10.13.14-undecahydro-1-hydroxy-7.14.14.17-tetramethyl-1.10-methano-20H-cyclonona[2.3]benz[1.2.b]oxet-12-yl ester] | 9.8 (≈ 0.0118 µM) | 5.4 (≈ 0.00648 µM) | 4.6 (≈ 0.00552 µM) | 8.3 (≈ 0.00995 µM) | – | – | – | – | – | –
CC(=O)O[C@@H]1C2=C(C)[C@@H](OC(=O)[C@H](O)[C@@H](NC(=O)c3ccccc3)c3ccccc3)C[C@@](O)([C@@H](OC(=O)c3ccccc3)[C@@H]3[C@]4(OC(C)=O)CO[C@@H]4C[C@H](C)[C@@]13C=O)C2(C)C [Example 4, β-Benzoylamino-α-hydroxybenzenepropanoic acid 4,9-bis(acetyloxy)-2-benzoyloxy-8-formyl-1.2.3.4.5.6.7.8.10.13.14-undecahydro-1-hydroxy-7.14.14.17-tetramethyl-1.10-m,ethano-20H-cyclonona[2.3]benz[1.2-b]oxet-12-yl ester] | – | – | – | – | 17 (≈ 0.0203 µM) | 76 (≈ 0.0907 µM) | 45 (≈ 0.0537 µM) | 32 (≈ 0.0382 µM) | – | –
CC(=O)O[C@H]1C(=O)[C@@]2(C)[C@H]([C@H](OC(=O)c3ccccc3)[C@]3(O)C[C@H](OC(=O)[C@H](O)[C@@H](NC(=O)c4ccccc4)c4ccccc4)C(C)=C1C3(C)C)[C@]1(OC(C)=O)CO[C@@H]1C[C@@H]2O [Paclitaxol, Paclitaxel] | – | – | – | – | 3.4 (≈ 0.00398 µM) | 2.5 (≈ 0.00293 µM) | 3.1 (≈ 0.00363 µM) | 9.6 (≈ 0.0112 µM) | effective against advanced breast and ovarian cancers | promising activity against a number of other tumor types
